This is an account of results in patent US8193225B2, “Isoxazole amides, derivatives and methods of chemical induction of neurogenesis” (priority 2006, dated 2012).

Entries after “also recorded” stand apart in the source; their conditions may differ.

The subject of assay [1] is HCN cells. In words: RT-PCR and protein blotting of gene expression in HCN cells. The class given is cell-based, rat. The settings on record: NPCs, 50 μM Muscimol.
Assay [2] concerns neuroD-luciferase. In words: neuroD-luciferase reporter gene assay in HCN cells. The class given is cell-based, rat. The conditions noted are these: for effect of inhibitor on neuroD-luc activity of Isx/Isx-9-treated cells: inhibitor added to Isx/Isx-9-treated HCNs/NPCs, 24 h.
For assay [3], the system named is HCN cells. In words: in vitro neuronal differentiation of HCN cells (morphology, Tuj1 staining). The class given is cell-based, rat. The settings on record: for morphologic neuronal differentiation of NPCs: 25 μM AMPA or 50 μM Muscimol; for effect of inhibitor on Isx-9 neurogenic activity (Tuj1+ cells): Isx-9-treated HCN cells, KN93 2 d cultures.
The test system of assay [4] is HDAC5. As to the kind of experiment: protein blotting of phospho-HDAC5, HDAC4 and phospho-CaMKII in HCN cells. It counts as cell-based, rat. The settings on record: Isx/Isx-9-treated NSCs; KN93, KN92 5 μM.
Assay [5] relates to MEF2 reporter gene (3XMRE-luc). As to the kind of experiment: MEF2 reporter gene (3XMRE-luc) assay in HCN cells. The class given is cell-based, rat. The conditions noted are these: Isx-9-treated HCN cells; KN93, KN92 5 μM (10, 5, 1 μM), G66976 200 nM.
The test system of assay [6] is Nkx2.5-luc. In words: Nkx2.5-luc reporter in P19CL6 clone #5-1. The class given is cell-based, mouse. From the text: Assay development. An Nkx2.5-luc transgene was constructed by replacing the two coding sequence exons of NRx2.5 locus from the ATG with the coding sequence of luc (from pGL3-basic vector, Promega) in an ˜180,000 base pair-long BAC (FIG. 11). The recombinant BAC DNA was introduced into pluripotent P19CL6 cells using Lipofectamine-2000 (Invitrogen) and neo^R clones were selected, and tested for chemically inducible luc activity with sodium butyrate (NaB). #5-1, a clonal stem cell line with low basal and at least a 4-fold higher NaB-inducible luciferase activity compared to vehicle control (DMSO), yielding a Z′ value of 0.7 in 384-well plate format (Zhang et al. 1999), was chosen for the HTS.

Assay [7] concerns HCN cells. As to the kind of experiment: cell death in HCN cells (propidium iodide/Hoescht live staining). The conditions noted are these: 2 μM Q-VD-Oph. It counts as cell-based, rat. The protocol: Neural stem cell culture, in vitro differentiation, and CaMK inhibitor studies. The hippocampal neural stem/progenitor (NSC) line used in this study (HCN cells) were originally isolated from adult (8-10 wks old) female Fisher 344 rats and have been characterized previously (Gage et al., 1995; Palmer et al., 1997). HCN cells were cultured in DMEM:F12 (Omega Scientific) with N2 supplement (Invitrogen) and basic fibroblast growth factor (20 ng/ml FGF-2) (PeproTech). The mouse whole brain neural stem/progenitors (MWB) were derived from adult (8-10 wks old) C57BL/6 mice that have been characterized previously (Ray and Gage, 2006). […]
Immunostaining, GFP-HDAC5 visualization, and fluorescence microscopy. […] Quantification of cell phenotype was done by sampling 6-8 random fields in each well and counting a total of 250-500 cells at 20× magnification. […] For quantification of live/dead cells, images were taken of cultures live-stained with propidium iodide and Hoescht 33342 at 20× magnification, and 500-1000 cells were counted by sampling 6-8 random fields in each well. For quantification of HDAC5 subcellular localization, 20× images were taken of live cultures, and 40-50 GFP+ cells were counted by sampling 3 random fields in each well. […]

The subject of assay [8] is pHDAC5:14-3-3-luciferase. In words: mammalian 2-hybrid luciferase assay (pHDAC5:14-3-3-luciferase). It counts as cell-based, rat. The settings on record: Isx-9-treated NSCs. The protocol:
FIGS. 5A-F—CaMK is the major HDAC kinase activated by Isx small-molecules in NSCs. […] The doses of KN93 and KN92 in reporter assays were 10, 5, and 1 μM. (FIG. 5D) A schematic diagram of a mammalian 2-hybrid luciferase assay system (pHDAC5:14-3-3-luciferase) which is dependent on the interaction of HDAC5 and 14-3-3. […] (FIG. 5E) Shown are representative images and quantification of the percentage of Isx-9-treated HCNs showing GFP-HDAC5 localization in nuclear (Nuc), cytoplasmic (Cyto), or both compartments (Nuc/Cyto) with and without KN93 or KN92 treatment after 24 h. […] Scale bar: 5 μm. Values in […] represent the average of 12 replicates±SD. Values in FIG. 5E represent the average of 2 replicates+SD of one representative experiment from two independent experiments.
Reporter gene assay. All reporter gene assays were done in 96-well format, and each data point represents the average of 12 replicates. Reporter genes included neuroD-, gIuR2-, MREx3-, NR1-, and pHDAC5:14-3-3-luciferase and each well contained ˜25,000 cells in a volume of 100 μl. 5×10^6 HCN cells were transfected with 5 μg DNA by electroporation (Amaxa) and plated in growth media overnight. In the case of pHDAC5:14-3-3-luciferase, cells were transfected with 2 μg of each plasmid. Compounds were added the day following transfection and luciferase assays were performed 24 or 48 h later. […]

With `NCc1cc(O)no1` [Muscimol, 5-aminomethyl-3-hydroxy-isoxazole], the GluR2/3 protein expression entry in assay [1] is “increase”. Further, in assay [2] (NPCs, 15 μM Muscimol), the neuroD-luciferase activity result is given as “an increase in neuroD-luciferase activity”. For the same compound, in assay [3], the “morphologic neuronal differentiation of NPCs” value is given as “failed to induce morphologic neuronal differentiation”.

With `Cn1c2ccccc2c2c3c(c4c5ccccc5n(CCC#N)c4c21)CNC3=O` [Isx G66976], in assay [4], the “effect of inhibitor on phospho-HDAC5 and phospho-CaMKII levels” value is listed as “did not”. The “effect of inhibitor on neuroD-luc activity of Isx/Isx-9-treated cells” value (shortened to “effect of inhibitor … of Isx/Isx-9-treated cells”) in assay [2] is given as “did not significantly affect Isx-induced reporter gene expression”. Also, the “effect of kinase inhibitor on Isx-9-mediated MEF2 reporter activation” value (“effect of kinase inhibitor” below) in assay [5] is recorded as “did not significantly affect Isx-induced reporter gene expression; also recorded: completely ineffective”.

For `CCCC(=O)[O-].[Na+]` [NaB, sodium butyrate], the “inducible luciferase activity compared to vehicle control (DMSO)” value in assay [6] is ≥ 4 fold.

For `CC(C)[C@H](NC(=O)c1ccc2ccccc2n1)C(=O)N[C@@H](CC(=O)O)C(=O)COc1c(F)cccc1F` [Q-VD-Oph], the “effect of inhibitor on Isx-9 neurogenic activity (Tuj1+ cells)” value in assay [3] was “does not further increase Tuj1+ cells”. Also, the “cell death in Isx-9-treated HCNs” value in assay [7] is given as “blocks cell death”.

Consider `COc1ccc(S(=O)(=O)N(CCO)c2ccccc2CN(C)C/C=C/c2ccc(Cl)cc2)cc1` [KN93], for which the “effect of inhibitor on phospho-HDAC5 and phospho-CaMKII levels” value in assay [4] was “blocked HDAC5 phosphorylation; also recorded: decreased phospho-HDAC5 and active phospho-CaMKII levels”. Besides, the “HDAC5 kinase activity (pHDAC5:14-3-3-luciferase)” value in assay [8] was “completely blocked HDAC5 kinase activity”. In assay [2], the “effect of inhibitor … of Isx/Isx-9-treated cells” value is given as “extremely effective in blocking Isx-mediated reporter gene expression”. Moreover, in assay [5], the “effect of kinase inhibitor” value is given as “extremely effective in blocking Isx-mediated reporter gene expression; also recorded: blocked Isx-9-mediated MEF2 reporter activation”. For the same compound, the “effect of inhibitor on Isx-9 neurogenic activity (Tuj1+ cells)” value in assay [3] is given as “resulted in an inhibition of Isx-9 neurogenic activity”.

As to `Cc1onc(O)c1CC(N)C(=O)O` (stereo not drawn) [AMPA, α-amino-3-hydroxy-5-methyl isoxazole-4-proprionic acid], the “morphologic neuronal differentiation of NPCs” value in assay [3] was “failed to induce morphologic neuronal differentiation”.

Turning to `COc1ccc(S(=O)(=O)Nc2ccccc2CN(C)C/C=C/c2ccc(Cl)cc2)cc1` [KN92], the “effect of inhibitor on phospho-HDAC5 and phospho-CaMKII levels” value in assay [4] is listed as “had no effect”. In addition, in assay [8], the “HDAC5 kinase activity (pHDAC5:14-3-3-luciferase)” value is on record as “not”. The “effect of kinase inhibitor” value in assay [5] is “had no effect”.

On to `C[C@]12N[C@H](Cc3ccccc31)c1ccccc12` [MK801], for which, in assay [2], the “effect of inhibitor … of Isx/Isx-9-treated cells” value is given as “small but significant decrease; also recorded: attenuated neuroD-luc activity”.
